Test results reported in patent US5922887A, “Diaryldiamine derivatives and their use as delta opiod (ANT)-agonists” (SmithKline Beecham SpA, priority 1995, dated 1999).
Counter-ions that a name gives are not always drawn.

Legend:
delta opioid receptor [1] = molecular target: T1, delta opioid receptor (Mus musculus, UniProt P32300); assay: radioligand binding assay, delta receptor ([3H]-DADLE, mouse brain membranes); settings: [3H]-DADLE 1.3 nM in presence of 40 nM DAMGO, read-out: Ki δ
Method: (§1) The activity of the compounds of the present invention as selective delta ligands is determined in radioligand binding assays as described below.
(§2) Mouse brain membranes were prepared as described by Kosterlitz (Br. J. Pharmacol., 1981, 73, 939.). The binding of the preferential delta ligand [^3 H]-[D-Ala^2, D-Leu^5 ]-enkephalin (DADLE) was evaluated at its KD concentration (1.3 nM) in presence of 40 nM of the unlabelled mu ligand [D-Ala^2, MePhe^4, Gly-ol^5 ]-enkephalin (DAMGO). The binding of the mu ligand [^3 H]-DAMGO (Eur. J. Pharmacol., 1989, 166, 213) and of the kappa ligand [^3 H]-U69593 (Excerpta Medica, 1990, 211) were carried out at 0.5 nM. The non-specific binding was determined in presence of naloxone (10 μM) for all tritiated ligands. Binding data were expressed as percentage of inhibition and fitted the following equation: f(x)=100·X/(IC50 +X) where X are cold drug concentration values. The IC50 obtained were used to calculate the inhibitory constants (Ki) accordingly to the Cheng and Prusoff relation (Biochenl. Pharmaco., 1973, 22, 3099).

mu opioid receptor = molecular target: T2, mu opioid receptor (Mus musculus, UniProt P42866); assay: radioligand binding assay, mu receptor ([3H]-DAMGO, mouse brain membranes); settings: selectivity ratio mu over delta
T2 construct: Mouse brain membranes were prepared as described by Kosterlitz; from tissue; host or cells: mouse brain membranes
Method: as §1, §2

kappa opioid receptor = molecular target: T3, kappa opioid receptor (Mus musculus, UniProt P33534); assay: radioligand binding assay, kappa receptor ([3H]-U69593, mouse brain membranes); settings: selectivity ratio kappa over delta
T3 construct: Mouse brain membranes were prepared as described by Kosterlitz; from tissue; host or cells: mouse brain membranes
Method: as §1, §2

delta opioid receptor [2] = molecular target: T1, delta opioid receptor; assay: mouse vas deferens (MVD) bioassay, delta agonist/antagonist activity; parameters: Vasa deferentia were obtained from CD-1 mice; from tissue; host or cells: vas deferens of CD-1 mice
Method: The delta agonist/antagonist activity of the compounds of the present invention is determined in the mouse vas deferens (MVD) bioassay as described below.
Vasa deferentia were obtained from CD-1 mice and were suspended in a Mg^2+ -free Krebs buffer at 37° C. The tissues were electrically stimulated with pulse trans having the following parameters: train duration 50 ms, stimulus duration 2 ms, frequency of stimuli 50 Hz, maximal voltage 60-70 V, train frequency 0.1 Hz. Concentration response curves for each compounds were constructed cumulatively. Linear regression analysis and IC50 concentrations were evaluated according to Tallarida and Murray (Manual of Pharmacological Calculations, Springer Verlag N.Y., 1981).

T1 sequence (P32300 whole entry): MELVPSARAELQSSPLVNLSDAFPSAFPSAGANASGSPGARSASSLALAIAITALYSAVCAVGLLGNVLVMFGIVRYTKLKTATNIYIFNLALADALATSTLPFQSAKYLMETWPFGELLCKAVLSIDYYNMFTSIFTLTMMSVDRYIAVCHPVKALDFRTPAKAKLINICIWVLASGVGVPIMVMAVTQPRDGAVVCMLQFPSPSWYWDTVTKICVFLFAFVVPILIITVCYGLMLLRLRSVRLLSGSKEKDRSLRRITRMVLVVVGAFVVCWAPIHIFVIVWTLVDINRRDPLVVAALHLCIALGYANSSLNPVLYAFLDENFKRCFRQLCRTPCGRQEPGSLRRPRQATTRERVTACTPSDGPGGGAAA
T2 sequence (P42866 whole entry): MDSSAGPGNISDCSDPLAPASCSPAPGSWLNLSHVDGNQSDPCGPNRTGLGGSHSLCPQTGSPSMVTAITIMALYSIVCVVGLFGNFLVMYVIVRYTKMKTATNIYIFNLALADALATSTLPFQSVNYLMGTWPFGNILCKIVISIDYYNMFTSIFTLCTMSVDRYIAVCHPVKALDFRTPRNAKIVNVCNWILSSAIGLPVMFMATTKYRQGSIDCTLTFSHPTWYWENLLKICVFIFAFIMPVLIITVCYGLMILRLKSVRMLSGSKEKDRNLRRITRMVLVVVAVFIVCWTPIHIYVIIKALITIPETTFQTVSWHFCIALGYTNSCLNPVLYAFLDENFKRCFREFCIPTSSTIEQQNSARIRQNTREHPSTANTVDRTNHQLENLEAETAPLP
T3 sequence (P33534 whole entry): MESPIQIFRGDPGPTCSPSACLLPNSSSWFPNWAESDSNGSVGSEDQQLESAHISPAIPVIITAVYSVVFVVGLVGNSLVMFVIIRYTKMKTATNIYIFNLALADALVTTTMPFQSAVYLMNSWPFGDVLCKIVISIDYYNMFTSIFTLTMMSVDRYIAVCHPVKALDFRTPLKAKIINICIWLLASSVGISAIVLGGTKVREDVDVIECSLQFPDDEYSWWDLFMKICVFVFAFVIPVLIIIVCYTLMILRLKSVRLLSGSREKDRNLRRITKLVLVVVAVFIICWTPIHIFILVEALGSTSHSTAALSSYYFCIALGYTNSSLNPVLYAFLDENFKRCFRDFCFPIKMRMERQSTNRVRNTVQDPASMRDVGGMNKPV

SMILES	Ki (delta opioid receptor [1]) [nM]	Ki μ/Ki δ (mu opioid receptor)	Ki κ/Ki δ (kappa opioid receptor)	shift of the dose-response curve caused by NTI (delta opioid receptor [2]; 30 nM of NTI (naltrindole)) [fold]	IC50 (delta opioid receptor [2]; electrically stimulated CD-1 mouse vas deferens, 37° C., delta agonists) [nM]
CCN(CC)C(=O)c1ccc(N(c2cccc(O)c2)C(C)CN(C)C)cc1 (racemic) [Example 9, (±)-N,N-diethyl-4-[[N-(3-dimethylaminoprop-2-yl)-N-(3-hydroxyphenyl)]amino]benzamide oxalate]	3.9	148	153	–	–
CCN(CC)C(=O)c1ccc(N(c2cccc(O)c2)C(C)CN2CCCC2)cc1 (racemic) [Example 5, (±)-N,N-diethyl-4-[[N-(3-hydroxyphenyl)-N-(3-pyrrolidinoprop-2-yl)]amino]benzamide citrate]	3.9	–	–	10	7
